Experimental data from patent publication US7199152B2, “TNF-α production inhibitor comprising kavalactone as an active ingredient” (Meiji Dairies Corporation, priority 2000, dated 2007).

Key:
[1] = system: TNF-α production in BALB/3T3 cells stimulated by okadaic acid; test: Inhibition of TNF-α production (in vitro) in BALB/3T3 cells stimulated by okadaic acid, ELISA; type: cell-based; details: for TNF-α production relative to the TNF-α production of the control: okadaic acid 0.2 μM, 24 hours, control = 100%; for TNF-α production inhibitory effect, overall assessment (in words): BALB/3T3 cells, okadaic acid stimulation
Protocol: In response to stimulation by okadaic acid (9,10-deepithio-9,10-didehydroacanthifolicin), BALB/3T3 cells produce TNF-α. The compounds of the present invention were investigated in terms of inhibitory effect on TNF-α production.
An MEM medium (product of Nissui) containing 10% fetal calf serum (product of Biocell Laboratory) was injected into 12-well multiplates (product of Corning), and BALB/3T3 cells were disseminated at 2×10^5 cells/well. The cells were cultured in a carbon dioxide gas incubator (5% Co2, humidified, 37° C.). Subsequently, KAVA-1, KAVA-2, KAVA-3, KAVA-4, or KAVA-5 was added to the wells at a concentration shown in FIG. 1, and the cells were cultured for one hour. No KAVA compound was added to the control wells. After completion of culturing, okadaic acid (carcinogenisis promoter isolated from Halichondria okadai) was added to each well at a final concentration of 0.2 μM, and culturing was performed for 24 hours. After completion of this culturing, the TNF-α concentration of the supernatant of each well was measured by means of ELISA system (product of Genzyme). In FIG. 1, the amount of TNF-α release corresponding to each compound concentration is represented by a percent concentration based on the amount of TNF-α release measured for the control (100%).

[2] = system: TNF-α production in serum induced by LPS; test: TNF-α inhibitory effect (in vivo), LPS-induced serum TNF-α in mice, ELISA; set-up: species or system BALB/c mice; details: 40 mg/kg intraperitoneally, LPS 50 μg/mouse i.p. immediately after, serum 90 minutes after LPS
Protocol: Male BALB/cAnNCrj mice of 6 weeks age were purchased from Japan Charles River, and those having body weights of 30 g or lower were tested.
Seven mice groups, each group consisting of six mice, were provided; i.e., 1) a group to which distilled water for injection was administered (non-treated group) (N); 2) a group to which a 0.3% carboxymethyl cellulose-Na (0.3% CMC-Na) suspension was administered (control group) (C); and 3) five groups to which KAVA-1, KAVA-2, KAVA-3, KAVA-4, and KAVA-5, respectively, were administered (0.3% CMC-Na was used as a solvent).
Each of KAVA-1, KAVA-2, KAVA-3, KAVA-4, and KAVA-5 was prepared to a drug liquid of 40 mg/10 ml. The liquid was intraperitoneally administered at 10 ml/kg (dose: 40 mg/kg), and 0.3% CMC-Na was intraperitoneally administered at 10 ml/kg to each corresponding group. Lipo-polysaccharide (LPS) (product of SIGMA) was dissolved in physiological saline, and the solution was intraperitoneally administered to each mouse in an amount of 0.2 ml (50 μg/mouse) immediately after administration of the drug liquid.
After 90 minutes from administration of LPS, blood was collected from the eye socket, and the collected sample was allowed to stand for one hour at room temperature. Subsequently, the sample was centrifuged at 11,000 rpm for five minutes, and the serum was collected. […]

Row | Structure (SMILES) | TNF-α production relative to the TNF-α production of the control ([1]; 100 μM compound) | inhibitory effect on TNF-α production (in words) ([1]; concentrations of 50 μM or less) | inhibition of serum TNF-α production compared with the control group (C) (in words) [2] | TNF-α production relative to the TNF-α production of the control ([1]; 10 μM compound) | TNF-α production relative to the TNF-α production of the control ([1]; 50 μM compound) | TNF-α production inhibitory effect, overall assessment (in words) [1]
1 | COC1=CC(=O)O[C@@H](CCc2ccccc2)C1 [KAVA-4, (+)-Dihydrokavain] | approximately 60% | no inhibitory effect | significantly (p<0.5) inhibited TNF-α production | – | – | –
2 | COC1=CC(=O)O[C@@H](/C=C/c2ccccc2)C1 [KAVA-5, (+)-Kavain] | approximately 39% | – | – | – | – | –
3 | COC1=CC(=O)O[C@@H](/C=C/c2ccc3c(c2)OCO3)C1 [KAVA-1, (+)-Methysticin] | approximately 39% | – | almost comparable to that exerted by KAVA-2 | – | – | –
4 | COc1cc(/C=C/c2ccccc2)oc(=O)c1 [KAVA-3, Desmethoxyyangonin] | approximately 0% | – | – | approximately 60% | approximately 22% | strong TNF-A production inhibitory effect
5 | COc1ccc(/C=C/c2cc(OC)cc(=O)o2)cc1 [KAVA-2, Yangonin] | approximately 22% | – | – | – | – | strong TNF-A production inhibitory effect
